Measured values published in ChEMBL document CHEMBL1144314, “Synthesis and antibacterial activity of 1-[1,2,4-triazol-3-yl] and 1-[1,3,4-thiadiazol-2-yl]-3-methylthio-6,7-dihydrobenzo[c]thiophen-4(5H)ones” (2005).

Legend:
Format in all cases: functional
Bacillus subtilis = experiment: Antimicrobial activity of the compound against Bacillus subtilis was determined
Candida albicans = experiment: Antimicrobial activity against Candida albicans was determined
Aspergillus niger = experiment: Antimicrobial activity against Aspergillus niger was determined
Staphylococcus aureus = experiment: Antimicrobial activity of the compound against Staphylococcus aureus was determined
[1] = test system: Staphylococcus epidermidis; experiment: Antimicrobial activity against Staphylococcus epidermidis was determined
Pseudomonas aeruginosa = experiment: Antimicrobial activity against Pseudomonas aeruginosa was determined
Bacillus cereus = experiment: Antimicrobial activity against Bacillus cereus was determined

`CCNc1nnc(-c2sc(SC)c3c2CCCC3=O)s1` was tested, and the Zone of inhibition (Bacillus subtilis) was 20 mm, the Zone of inhibition (Candida albicans) was 13 mm and the Zone of inhibition (Aspergillus niger) was 8 mm.

Work on `CCCCNc1nnc(-c2sc(SC)c3c2CCCC3=O)s1` yielded a Zone of inhibition (Bacillus subtilis) of 22 mm, a Zone of inhibition (Candida albicans) of 11 mm and a Zone of inhibition (Aspergillus niger) of 9 mm.

Molecule `CCCCn1c(S)nnc1-c1sc(SC)c2c1CCCC2=O` has a Zone of inhibition (Bacillus subtilis) of 14 mm, a Zone of inhibition (Staphylococcus aureus) of 17 mm and a Zone of inhibition [1] of 26 mm.

`CSc1sc(-c2nnc(S)n2-c2ccc([N+](=O)[O-])cc2)c2c1C(=O)CCC2` gave a Zone of inhibition (Bacillus subtilis) of 23 mm, a Zone of inhibition (Staphylococcus aureus) of 18 mm and a Zone of inhibition (Pseudomonas aeruginosa) of 14 mm. It also gave a Zone of inhibition [1] of 25 mm.

Work on `CSc1sc(-c2nnc(Nc3ccc([N+](=O)[O-])cc3)s2)c2c1C(=O)CCC2` yielded a Zone of inhibition (Bacillus subtilis) of 33 mm, a Zone of inhibition (Candida albicans) of 14 mm and a Zone of inhibition (Aspergillus niger) of 10 mm.

`C[C@@H]1[C@H](O)[C@@H](C)/C=C/C=C/C=C/C=C/C=C/C=C/C=C/[C@H](O[C@@H]2O[C@H](C)[C@@H](O)[C@H](N)[C@@H]2O)C[C@@H]2O[C@](O)(C[C@@H](O)C[C@@H](O)[C@H](O)CC[C@@H](O)C[C@@H](O)CC(=O)O[C@H]1C)C[C@H](O)[C@H]2C(=O)O` [AMPHOTERICIN B] showed a Zone of inhibition (Candida albicans) of 22 mm and a Zone of inhibition (Aspergillus niger) of 22 mm.

With `CSc1sc(-c2nnc(NC3CCCCC3)s2)c2c1C(=O)CCC2` the Zone of inhibition (Aspergillus niger) was 12 mm.

In the case of `CNc1nnc(-c2sc(SC)c3c2CCCC3=O)s1`, the Zone of inhibition (Bacillus subtilis) is reported as 28 mm, the Zone of inhibition (Candida albicans) is reported as 12 mm and the Zone of inhibition (Aspergillus niger) is reported as 11 mm.

In the case of `CCCCn1c(SC)nnc1-c1sc(SC)c2c1CCCC2=O`, the Zone of inhibition (Bacillus cereus) is reported as 16 mm, the Zone of inhibition (Bacillus subtilis) is reported as 16 mm and the Zone of inhibition (Staphylococcus aureus) is reported as 17 mm. For the same molecule, the Zone of inhibition [1] was 26 mm.

`COc1ccc(-n2c(S)nnc2-c2sc(SC)c3c2CCCC3=O)cc1` gave a Zone of inhibition (Bacillus subtilis) of 11 mm.

For `CSc1sc(-c2nnc(SC)n2-c2ccc([N+](=O)[O-])cc2)c2c1C(=O)CCC2`, the Zone of inhibition (Bacillus cereus) was 12 mm, the Zone of inhibition (Bacillus subtilis) was 21 mm and the Zone of inhibition (Staphylococcus aureus) was 18 mm. For the same molecule, the Zone of inhibition (Pseudomonas aeruginosa) was 14 mm and the Zone of inhibition [1] was 24 mm.

`O=C1CN(/N=C/c2ccc([N+](=O)[O-])o2)C(=O)N1` [NITROFURANTOIN] gave a Zone of inhibition (Bacillus cereus) of 20 mm, a Zone of inhibition (Bacillus subtilis) of 18 mm and a Zone of inhibition (Staphylococcus aureus) of 21 mm. For the same molecule, the Zone of inhibition (Pseudomonas aeruginosa) was 21 mm.

For GENTAMICIN, the inhibition zone (IZ) (Bacillus cereus) was 28 mm, the inhibition zone (IZ) (Bacillus subtilis) was 30 mm and the inhibition zone (IZ) [1] was 20 mm.
